Test results from patent US20230265393A1, “COMPOSITION AND METHODS FOR PRODUCING ADULT LIVER ORGANOIDS” (Rutgers, the State University of New Jersey, priority 2021, published 2023).

How the values were obtained:
Format in all cases: cell-based, human
[1] = tested on: primary hepatocytes; assay: 3D organoid culture of adult donor-derived primary hepatocytes (HepAOs): organoid formation and expansion; conditions: single hepatocyte suspensions from adult donors, supplemented EM, over 2 weeks (FIG. 1E)
Protocol: Human hepatic cells were counted and seeded at a concentration of 100 cells per μL of the ECM Matrigel™ (Corning™). The cell-ECM mix were seeded on 24 well plates Greiner™) that had been incubated 24 hours prior at 37° C. A total of 50 μL of Matrigel™ were added to the center of each well to form a dome shaped chamber and incubated for 5-8 minutes at 37° C. before adding 500 μμL of isolation medium to each well. Media specifications and storage times are indicated.
After 4 days, the isolation medium was substituted for expansion medium (EM) containing 10 μM ROCK inhibitor (Y-27632). The EM was replenished three times per week.
After the first 6 days in culture, the ROCK inhibitor was removed from the media. The cells within the ECM mix were expanded for 14 days to form organoids. After 14 days, the media was supplemented with 25 ng/mL of BMP7, and the organoids were cultured for 5 days before replacing the media with hepatocyte differentiation medium (DM). The DM were replenished every 3 days. At day 7 of differentiation, the organoids were used for analyses. […]
We assessed the organoid-forming efficiency at one week in single cell derived organoids (FIG. 1B and FIG. 1C). […]

[2] = tested on: HepG2 cells; assay: 3D organoid culture of HepG2 cells (HepGOs): organoid counts; conditions: compared to serum-containing growth media (HepG2 GM) (FIG. 3B)
Source text: Well-differentiated hepatoma cell lines HepG2, PLC/PRF/5, and HuH7 were maintained as previously described. In initial studies, classical culture media was used, containing high glucose concentration (4.5 g/L) corresponding to systemic hyperglycemia. Low glucose concentrations corresponding to normoglycemia (1 g/L) were utilized in parallel to study the effects on cell proliferation. HepG2 cells were first cultured in monolayer. Once 80-90% confluence was reached the cells were collected and used to start the organoid culture. HepGOs were generated on 48 well tissue culture plates (Grenier™). The plates were left overnight at 37° C. before using them to plate the Matrigel™ matrix. Cells were plated at a concentration of approximately 40 cells per μL of Matrigel™. We used a 25 μL drop/well to form the organoid dome at the center and the organoid dome were overlaid with 250 μLs of human expansion medium (EM) with the multiple EM variations tested. The plates were then incubated for 7 days under standard tissue culture conditions (37° C. and 5% CO2). Media was changed every other day. After 7 days of expansion, the media was replaced with differentiation media (DM). The organoids were cultured for an additional 7 days, at which point the organoids were used for analysis.

[3] = tested on: HepGOs; assay: Glucose production assay in HepGOs; conditions: HepGOs expanded in EM+F+OSM, 24-hour starvation, 24 hours production (FIG. 7D)
Protocol: Prior to each glucose production assay, organoid cells were serum starved for 3 and 24 hours. The assay was done in 3D organoid culture media, containing no glucose or pyruvate. For substrate glucose production assays, the glucose production basal media (BM) were supplemented with either glycerol, glucagon, or a combination of both. Data were obtained by obtaining media from wells that contained 12-14 Matrigel™ droplets containing approximately 1,400 organoids. Glucose measurements were done enzymatically with a Glucose Assay Kit (Abcam™).
The HepGOs were starved for 3 or 24 hours and then allowed to produce glucose for 24 hours. The glucose production basal media (BM) was supplemented with either glycerol, glucagon, or a combination of the two. Data was obtained pooled organoids with a total of ˜70,000 organoid cells. The scale bar is 100 μm. (**p<0.01, *p<0.05).

[4] = tested on: G6PC; assay: Q-PCR expression of G6PC in organoids; conditions: fresh or frozen and re-expanded organoids, EM conditions C3-C5 (FIG. 5)
Protocol: (§1) RNA was first extracted from the differentiated organoids using Trizol™. RNA was used for cDNA synthesis using the iScript Kit (BioRad™). Quantitative PCR (Q-PCR) was performed for targets of interest including G6PC, PCK1, and AFP using Bio-Rad™ CFX96. Bio Rad™'s SYBR Green (SG), a asymmetrical cyanine dye used as a nucleic acid stain in Q-PCR super mix was used with the target-specific primers. See Table 3, below for a description of the primers used for hepatocyte expression. The data was analyzed using Excel™ and Prism 8™.
(§2) HepGOs were expanded for one month, and then media were supplemented with 25 ng/mL BMP7 for 5 days before replacing the media with hepatocyte DM for one week. The data are from experiments that were done in at least in duplicate with three replicates per condition and were normalized to the endogenous control (β-Actin) and HepG2 GM cultures. The scale bar is 100 μm.

[5] = tested on: PCK1; assay: Q-PCR expression of PCK1 in organoids; conditions: fresh or frozen and re-expanded organoids, EM conditions C3-C5 (FIG. 5)
Protocol: as §1, §2

Cc1cccc(-c2nn(C(=S)Nc3ccccc3)cc2-c2ccnc3ccccc23)n1 [A8301]
number of organoids formed / expansion [1]: showed the least number of organoids being formed
HepGO number [2]: significantly limited the 3D culture and expansion of HepG2 cells

glucagon
glucose production [3]: significantly enhanced glucose production

B1: OSM: oncostatin M, a member of the IL-6 family of cytokines (protein, UniProt P13725 26-221, looked up)
Oncostatin-M: AAIGSCSKEYRVLLGQLQKQTDLMQDTSRLLDPYIRIQGLDVPKLREHCRERPGAFPSEETLRGLGRRGFLQTLNATLGCVLHRLADLEQRLPKAQDLERSGLNIEDLEKLQMARPNILGLRNNIYCMAQLLDNSDTAEPTKAGRGASQPPTPTPASDAFQRKLEGCRFLHGYHRFMHSVGRVFSKWGESPNRSRR
induction of G6PC expression [4]: tend to decrease at one month post differentiation
induction of PCK1 expression [5]: tend to decrease at one month post differentiation

B2: BMP7: bone morphogenetic protein 7 (protein, UniProt P18075 293-431, looked up)
Bone morphogenetic protein 7: STGSKQRSQNRSKTPKNQEALRMANVAENSSSDQRQACKKHELYVSFRDLGWQDWIIAPEGYAAYYCEGECAFPLNSYMNATNHAIVQTLVHFINPETVPKPCCAPTQLNAISVLYFDDSSNVILKKYRNMVVRACGCH
HepGO number [2]: slightly but not significantly improved HepGO number
